Molecules are shown by their SMILES.

Chain of mGluR5 receptor (I3LUI7 19-1212): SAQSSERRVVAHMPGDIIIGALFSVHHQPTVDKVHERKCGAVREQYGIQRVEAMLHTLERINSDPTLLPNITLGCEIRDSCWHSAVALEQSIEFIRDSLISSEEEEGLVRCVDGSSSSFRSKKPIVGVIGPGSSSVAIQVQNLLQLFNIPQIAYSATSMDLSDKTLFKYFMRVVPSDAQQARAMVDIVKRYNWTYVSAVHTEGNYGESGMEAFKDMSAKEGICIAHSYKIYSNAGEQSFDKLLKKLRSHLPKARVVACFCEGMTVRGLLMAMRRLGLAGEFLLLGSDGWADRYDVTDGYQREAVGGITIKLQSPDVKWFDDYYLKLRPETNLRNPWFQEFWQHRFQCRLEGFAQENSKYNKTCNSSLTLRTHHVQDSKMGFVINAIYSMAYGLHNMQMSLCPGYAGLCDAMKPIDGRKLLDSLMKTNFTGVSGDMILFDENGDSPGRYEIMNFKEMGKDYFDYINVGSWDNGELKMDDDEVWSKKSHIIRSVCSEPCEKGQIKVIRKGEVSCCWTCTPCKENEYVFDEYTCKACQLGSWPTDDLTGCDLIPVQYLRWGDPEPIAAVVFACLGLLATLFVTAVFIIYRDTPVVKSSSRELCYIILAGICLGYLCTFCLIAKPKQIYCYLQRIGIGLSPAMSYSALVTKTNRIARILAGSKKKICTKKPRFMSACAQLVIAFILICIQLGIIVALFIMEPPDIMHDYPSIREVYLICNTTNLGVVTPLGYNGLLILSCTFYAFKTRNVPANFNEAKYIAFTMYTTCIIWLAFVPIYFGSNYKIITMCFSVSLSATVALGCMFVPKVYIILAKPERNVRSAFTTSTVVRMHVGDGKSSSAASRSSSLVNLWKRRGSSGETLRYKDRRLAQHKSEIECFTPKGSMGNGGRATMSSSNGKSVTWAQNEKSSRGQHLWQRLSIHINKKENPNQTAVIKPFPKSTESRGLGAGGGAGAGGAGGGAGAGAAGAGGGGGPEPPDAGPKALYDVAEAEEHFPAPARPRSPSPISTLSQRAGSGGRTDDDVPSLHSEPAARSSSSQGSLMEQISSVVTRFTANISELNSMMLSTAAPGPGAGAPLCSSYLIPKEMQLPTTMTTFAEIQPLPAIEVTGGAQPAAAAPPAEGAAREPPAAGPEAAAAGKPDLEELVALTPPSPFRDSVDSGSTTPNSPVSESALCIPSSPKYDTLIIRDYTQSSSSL

This test addresses mGluR5 receptor (Sus scrofa, UniProt I3LUI7). As to the kind of experiment: Affinity for the mGluR5 receptor: inhibition of 3[H]-MPEP binding in pig brain homogenate. The settings on record: 10 μM compound, 5 nM 3[H]-MPEP, read-out: mGluR5 receptor inhibition of ^3[H]-MPEP binding [10 μM] in % at a concentration of the example compounds of 10 μM. The gist of the method:
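Test compounds were screened at 10 μM for displacement of 5 nM [3H]-MPEP from pig brain homogenate (450 μg protein, pH 8.0 Hepes buffer) over 60 min at room temperature. After filtration, scintillation counting gave the read-out. 10 μM unlabelled MPEP set nonspecific binding.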
In the case of `CC(C)(C)CC(C)(C)Nc1c(-c2ccc(C#Cc3ccccn3)o2)nc2cnccn12` [Example 248, 2-(5-(pyridin-2-ylethynyl)furan-2-yl)-N-(2,4,4-trimethylpentan-2-yl)imidazo[1,2-a]pyrazin-3-amine], the inhibition at 10 µM worked out at 68%.

As to `Cc1cccc(C#Cc2cccc(-c3nc4cnccn4c3NC3CCCC3)c2)n1` [Example 249, N-cyclopentyl-2-(3-((6-methylpyridin-2-yl)ethynyl)phenyl)imidazo[1,2-a]pyrazin-3-amine], the inhibition at 10 µM was determined as 80%.

On to `Cc1cc(Br)c2nc(-c3ccc(C#Cc4ccccn4)cc3)c(NC3CCCC3)n2c1` [Example 250, 8-bromo-N-cyclopentyl-6-methyl-2-(4-(pyridin-2-ylethynyl)phenyl)imidazo[1,2-a]pyridin-3-amine], for which the inhibition at 10 µM was 69%.

Regarding `Cc1cccc(C#Cc2cccc(-c3nc4cnccn4c3NC3CCCCC3)c2)n1` [Example 251, N-cyclohexyl-2-(3-((6-methylpyridin-2-yl)ethynyl)phenyl)imidazo[1,2-a]pyrazin-3-amine], the inhibition at 10 µM turned out to be 80%.

Consider `Cc1cccc(C#Cc2cccc(-c3nc4cnccn4c3Nc3ccc(F)cc3)c2)n1` [Example 252, N-(4-fluorophenyl)-2-(3-((6-methylpyridin-2-yl)ethynyl)phenyl)imidazo[1,2-a]pyrazin-3-amine], for which the inhibition at 10 µM worked out at 86%.

On to `CC(C)(C)CC(C)(C)Nc1c(-c2ccc(C#Cc3ccccn3)s2)nc2ncccn12` [Example 253, 2-(5-(pyridin-2-ylethynyl)thiophen-2-yl)-N-(2,4,4-trimethylpentan-2-yl)imidazo[1,2-a]pyrimidin-3-amine], for which the inhibition at 10 µM was determined as 73%.

Regarding `C(#Cc1ccccn1)c1cccc(-c2nc3ncccn3c2NC2CCCCC2)c1` [Example 254, N-cyclohexyl-2-(3-(pyridin-2-ylethynyl)phenyl)imidazo[1,2-a]pyrimidin-3-amine], the inhibition at 10 µM is 77%.

`CC(C)(C)CC(C)(C)Nc1c(-c2cccc(C#Cc3ccccn3)c2)nc2ncccn12` [Example 255, 2-(3-(pyridin-2-ylethynyl)phenyl)-N-(2,4,4-trimethylpentan-2-yl)imidazo[1,2-a]pyrimidin-3-amine]: the inhibition at 10 µM stood at 81%.

With `CC(C)(C)CC(C)(C)Nc1c(-c2ccc(C#Cc3ccccc3)nc2)nc2ncccn12` [Example 256, 2-(6-(phenylethynyl)pyridin-3-yl)-N-(2,4,4-trimethylpentan-2-yl)imidazo[1,2-a]pyrimidin-3-amine], the inhibition at 10 µM was 43%.

With `C(#Cc1ccc(-c2nc3ncccn3c2NC2CCCC2)o1)c1ccccn1` [Example 257, N-cyclopentyl-2-(5-(pyridin-2-ylethynyl)furan-2-yl)imidazo[1,2-a]pyrimidin-3-amine], the inhibition at 10 µM came to 77%.

In the case of `CC(C)(C)Nc1c(-c2ccc(C#Cc3ccccn3)o2)nc2ncccn12` [Example 258, N-tert-butyl-2-(5-(pyridin-2-ylethynyl)furan-2-yl)imidazo[1,2-a]pyrimidin-3-amine], the inhibition at 10 µM was 86%.

Turning to `Cc1cccc(C#Cc2cccc(-c3nc4ncccn4c3NC3CCCC3)c2)n1` [Example 259, N-cyclopentyl-2-(3-((6-methylpyridin-2-yl)ethynyl)phenyl)imidazo[1,2-a]pyrimidin-3-amine], the inhibition at 10 µM is 82%.

For `C(#Cc1ccccn1)c1cccc(-c2nc3ccccn3c2NC2CCCC2)c1` [Example 260, N-cyclopentyl-2-(3-(pyridin-2-ylethynyl)phenyl)imidazo[1,2-a]pyridin-3-amine], the inhibition at 10 µM worked out at 64%.

On to `CC(C)(C)Nc1c(-c2cccc(C#Cc3ccccn3)c2)nc2ccccn12` [Example 261, N-tert-butyl-2-(3-(pyridin-2-ylethynyl)phenyl)imidazo[1,2-a]pyridin-3-amine], for which the inhibition at 10 µM is 79%.

As for `CC(C)(C)CC(C)(C)Nc1c(-c2cccc(C#Cc3ccccn3)c2)nc2ccccn12` [Example 262, 2-(3-(pyridin-2-ylethynyl)phenyl)-N-(2,4,4-trimethylpentan-2-yl)imidazo[1,2-a]pyridin-3-amine], the inhibition at 10 µM came out at 72%.

As to `Fc1ccc(Nc2c(-c3cccc(C#Cc4ccccn4)c3)nc3ccccn23)cc1` [Example 263, N-(4-fluorophenyl)-2-(3-(pyridin-2-ylethynyl)phenyl)imidazo[1,2-a]pyridin-3-amine], the inhibition at 10 µM is 85%.

Take `CC(C)(C)Nc1c(-c2ccc(C#Cc3ccccn3)cc2)nc2ccccn12` [Example 264, N-tert-butyl-2-(4-(pyridin-2-ylethynyl)phenyl)imidazo[1,2-a]pyridin-3-amine]: the inhibition at 10 µM is 83%.

On to `Cc1nc(C#Cc2ccccc2)ccc1-c1nc2ccccn2c1NC1CCCC1` [Example 265, N-cyclopentyl-2-(2-methyl-6-(phenylethynyl)pyridin-3-yl)imidazo[1,2-a]pyridin-3-amine], for which the inhibition at 10 µM came to 68%.

In the case of `Cc1nc(C#Cc2ccccc2)ccc1-c1nc2ccccn2c1Nc1ccc(F)cc1` [Example 266, N-(4-fluorophenyl)-2-(2-methyl-6-(phenylethynyl)pyridin-3-yl)imidazo[1,2-a]pyridin-3-amine], the inhibition at 10 µM was 63%.

In the case of `Cc1ccc2nc(-c3ccc(C#Cc4ccccn4)s3)c(NC3CCCC3)n2c1` [Example 267, N-cyclopentyl-6-methyl-2-(5-(pyridin-2-ylethynyl)thiophen-2-yl)imidazo[1,2-a]pyridin-3-amine], the inhibition at 10 µM was found to be 85%.

`Cc1ccc2nc(-c3ccc(C#Cc4ccccn4)s3)c(NC(C)(C)C)n2c1` [Example 268, N-tert-butyl-6-methyl-2-(5-(pyridin-2-ylethynyl)thiophen-2-yl)imidazo[1,2-a]pyridin-3-amine]: the inhibition at 10 µM is 75%.

Consider `Cc1ccc2nc(-c3ccc(C#Cc4ccccn4)s3)c(NC3CCCCC3)n2c1` [Example 269, N-cyclohexyl-6-methyl-2-(5-(pyridin-2-ylethynyl)thiophen-2-yl)imidazo[1,2-a]pyridin-3-amine], for which the inhibition at 10 µM was found to be 94%.

As to `Cc1ccc2nc(-c3ccc(C#Cc4ccccn4)s3)c(NC(C)(C)CC(C)(C)C)n2c1` [Example 270, 6-methyl-2-(5-(pyridin-2-ylethynyl)thiophen-2-yl)-N-(2,4,4-trimethylpentan-2-yl)imidazo[1,2-a]pyridin-3-amine], the inhibition at 10 µM was 93%.

In the case of `Cc1ccc2nc(-c3ccc(C#Cc4ccccc4)nc3C)c(NC(C)(C)CC(C)(C)C)n2c1` [Example 271, 6-methyl-2-(2-methyl-6-(phenylethynyl)pyridin-3-yl)-N-(2,4,4-trimethylpentan-2-yl)imidazo[1,2-a]pyridin-3-amine], the inhibition at 10 µM was determined as 31%.

Regarding `Cc1ccc2nc(-c3ccc(C#Cc4ccccn4)o3)c(NC3CCCC3)n2c1` [Example 272, N-cyclopentyl-6-methyl-2-(5-(pyridin-2-ylethynyl)furan-2-yl)imidazo[1,2-a]pyridin-3-amine], the inhibition at 10 µM was found to be 72%.

Regarding `Cc1ccc2nc(-c3cccc(C#Cc4cccc(C)n4)c3)c(NC3CCCCC3)n2c1` [Example 273, N-cyclohexyl-6-methyl-2-(3-((6-methylpyridin-2-yl)ethynyl)phenyl)imidazo[1,2-a]pyridin-3-amine], the inhibition at 10 µM was 84%.

Regarding `Cc1ccn2c(NC3CCCCC3)c(-c3ccc(C#Cc4ccccn4)s3)nc2c1` [Example 274, N-cyclohexyl-7-methyl-2-(5-(pyridin-2-ylethynyl)thiophen-2-yl)imidazo[1,2-a]pyridin-3-amine], the inhibition at 10 µM was 85%.

`Cc1ccn2c(NC(C)(C)CC(C)(C)C)c(-c3ccc(C#Cc4ccccn4)s3)nc2c1` [Example 275, 7-methyl-2-(5-(pyridin-2-ylethynyl)thiophen-2-yl)-N-(2,4,4-trimethylpentan-2-yl)imidazo[1,2-a]pyridin-3-amine]: the inhibition at 10 µM was 85%.

Turning to `Cc1ccn2c(NC(C)(C)C)c(-c3cccc(C#Cc4ccccn4)c3)nc2c1` [Example 276, N-tert-butyl-7-methyl-2-(3-(pyridin-2-ylethynyl)phenyl)imidazo[1,2-a]pyridin-3-amine], the inhibition at 10 µM was 93%.

Regarding `Cc1ccn2c(Nc3ccc(F)cc3)c(-c3cccc(C#Cc4ccccn4)c3)nc2c1` [Example 277, N-(4-fluorophenyl)-7-methyl-2-(3-(pyridin-2-ylethynyl)phenyl)imidazo[1,2-a]pyridin-3-amine], the inhibition at 10 µM was 95%.

With `Cc1ccn2c(NC(C)(C)C)c(-c3ccc(C#Cc4ccccn4)cc3)nc2c1` [Example 278, N-tert-butyl-7-methyl-2-(4-(pyridin-2-ylethynyl)phenyl)imidazo[1,2-a]pyridin-3-amine], the inhibition at 10 µM worked out at 93%.

Regarding `Cc1ccn2c(Nc3ccc(F)cc3)c(-c3ccc(C#Cc4ccccn4)o3)nc2c1` [Example 279, N-(4-fluorophenyl)-7-methyl-2-(5-(pyridin-2-ylethynyl)furan-2-yl)imidazo[1,2-a]pyridin-3-amine], the inhibition at 10 µM turned out to be 67%.

Turning to `Cc1cccn2c(NC3CCCCC3)c(-c3ccc(C#Cc4ccccc4)nc3)nc12` [Example 280, N-cyclohexyl-8-methyl-2-(6-(phenylethynyl)pyridin-3-yl)imidazo[1,2-a]pyridin-3-amine], the inhibition at 10 µM came to 31%.

Consider `C(#Cc1ccc(-c2nc3ccccn3c2NC2CCCC2)cn1)c1ccccc1` [Example 281, N-cyclopentyl-2-(6-(phenylethynyl)pyridin-3-yl)imidazo[1,2-a]pyridin-3-amine], for which the inhibition at 10 µM was found to be 83%.

Consider `CC(C)(C)Nc1c(-c2ccc(C#Cc3ccccc3)nc2)nc2ccccn12` [Example 282, N-tert-butyl-2-(6-(phenylethynyl)pyridin-3-yl)imidazo[1,2-a]pyridin-3-amine], for which the inhibition at 10 µM amounted to 72%.

As for `C(#Cc1ccc(-c2nc3ccccn3c2NC2CCCCC2)cn1)c1ccccc1` [Example 283, N-cyclohexyl-2-(6-(phenylethynyl)pyridin-3-yl)imidazo[1,2-a]pyridin-3-amine], the inhibition at 10 µM worked out at 82%.

(Values after US7420056B2, “Substituted bicyclic imidazo-3-ylamine compounds” (Gruenenthal GmbH, priority 2004, dated 2008).)
